#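 Five concentrations, 48 hours, 96-well plates. GI50 is the concentration that inhibits growth by half.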 The source made the active and inactive calls. No stated cut-off is given here; in the data, active = GI50 up to about 1.1 µM and inactive = higher.
# Tests used:
# Experiment in all cases: inhibition of tumour cell growth, NCI panel, 48 h
# 786-0 = test system: 786-0
# ACHN = test system: ACHN
# BT-549 = test system: BT-549
# CAKI-1 = test system: CAKI-1
# HCC 2998 = test system: HCC 2998
# HCT-116 = test system: HCT-116
# IGROV-1 = test system: IGROV-1
# K562 = test system: K562
# LOX IMVI = test system: LOX IMVI
# NCI-H226 = test system: NCI-H226
# NCI-H23 = test system: NCI-H23
# SF-295 = test system: SF-295
# SK-MEL-2 = test system: SK-MEL-2
# SNB-19 = test system: SNB-19
# SW-620 = test system: SW-620
# T47D = test system: T47D
# TK-10 = test system: TK-10
# U-251 = test system: U-251
# UACC-257 = test system: UACC-257
# UO-31 = test system: UO-31
Compound,GI50 (786-0),GI50 (ACHN),GI50 (BT-549),GI50 (CAKI-1),GI50 (HCC 2998),GI50 (HCT-116),GI50 (IGROV-1),GI50 (K562),GI50 (LOX IMVI),GI50 (NCI-H226),GI50 (NCI-H23),GI50 (SF-295),GI50 (SK-MEL-2),GI50 (SNB-19),GI50 (SW-620),GI50 (T47D),GI50 (TK-10),GI50 (U-251),GI50 (UACC-257),GI50 (UO-31)
O=C(O)c1ccc(Cc2ccccc2C(=O)O)cc1,> 100 µM (inactive),> 100 µM (inactive),> 100 µM (inactive),> 100 µM (inactive),> 100 µM (inactive),> 100 µM (inactive),> 100 µM (inactive),> 100 µM (inactive),> 100 µM (inactive),> 100 µM (inactive),> 100 µM (inactive),> 100 µM (inactive),> 100 µM (inactive),> 100 µM (inactive),> 100 µM (inactive),> 100 µM (inactive),> 100 µM (inactive),> 100 µM (inactive),> 100 µM (inactive),> 100 µM (inactive)
COc1cc(-c2cc(O)c(-c3ccc4ccccc4n3)c(O)n2)cc(OC)c1OC,34.4 µM (inactive),> 62.7 µM (inactive),80.4 µM (inactive),> 44 µM (inactive),> 60.3 µM (inactive),19 µM (inactive),43.5 µM (inactive),3.31 µM (inactive),19.1 µM (inactive),> 48.3 µM (inactive),46.2 µM (inactive),21.9 µM (inactive),32.2 µM (inactive),> 75.7 µM (inactive),19.1 µM (inactive),97.5 µM (inactive),69.7 µM (inactive),22.9 µM (inactive),54.3 µM (inactive),68.7 µM (inactive)
O=C1Nc2ccccc2C1(O)Cc1ccccn1 (stereo not given),> 100 µM (inactive),> 100 µM (inactive),> 100 µM (inactive),> 100 µM (inactive),> 100 µM (inactive),> 100 µM (inactive),> 100 µM (inactive),> 100 µM (inactive),> 100 µM (inactive),> 100 µM (inactive),> 100 µM (inactive),> 100 µM (inactive),> 100 µM (inactive),> 100 µM (inactive),> 100 µM (inactive),> 100 µM (inactive),> 100 µM (inactive),> 100 µM (inactive),> 100 µM (inactive),> 100 µM (inactive)
Cn1c(=O)cc(Nc2ccc(N)cc2)[nH]c1=O,> 100 µM (inactive),> 100 µM (inactive),> 100 µM (inactive),> 100 µM (inactive),> 100 µM (inactive),> 100 µM (inactive),> 100 µM (inactive),> 100 µM (inactive),> 100 µM (inactive),> 100 µM (inactive),> 100 µM (inactive),> 100 µM (inactive),> 100 µM (inactive),> 100 µM (inactive),> 100 µM (inactive),> 100 µM (inactive),> 100 µM (inactive),> 100 µM (inactive),> 100 µM (inactive),> 100 µM (inactive)
COc1ccc(C(O)/C(=N/N)c2nc3ccc(Cl)cc3nc2O)cc1 (stereo not given),> 100 µM (inactive),> 100 µM (inactive),> 100 µM (inactive),> 100 µM (inactive),> 100 µM (inactive),> 100 µM (inactive),> 100 µM (inactive),> 100 µM (inactive),> 100 µM (inactive),> 100 µM (inactive),> 100 µM (inactive),> 100 µM (inactive),> 100 µM (inactive),> 100 µM (inactive),> 100 µM (inactive),99.8 µM (inactive),> 100 µM (inactive),> 100 µM (inactive),> 100 µM (inactive),> 100 µM (inactive)
C[N+]1(C)C/C(=C\C=C\c2ccccc2)C(=O)/C(=C/C=C/c2ccccc2)C1,17.8 µM (inactive),49.7 µM (inactive),1.92 µM (inactive),65 µM (inactive),8.55 µM (inactive),9.48 µM (inactive),2.99 µM (inactive),4.18 µM (inactive),12.2 µM (inactive),22.3 µM (inactive),9.71 µM (inactive),23.8 µM (inactive),17 µM (inactive),6.08 µM (inactive),9.79 µM (inactive),17 µM (inactive),33.4 µM (inactive),3.89 µM (inactive),8.39 µM (inactive),85.5 µM (inactive)
CC1/C=C/C=C/CC/C=C/C=C/C=C/C=C/C(OC2OC(C)C(O)C(N)C2O)CC2OC(CC(O)C(O)CCC(O)CC(O)CC(O)CC(=O)OC(C)C(C)C1O)CC(O)C2C(=O)O (stereo not given),17 µM (inactive),17.7 µM (inactive),17 µM (inactive),17.5 µM (inactive),14.8 µM (inactive),17.2 µM (inactive),17.6 µM (inactive),34.4 µM (inactive),18.2 µM (inactive),13.5 µM (inactive),18.1 µM (inactive),22.3 µM (inactive),28.6 µM (inactive),18.3 µM (inactive),20.7 µM (inactive),57.1 µM (inactive),17.5 µM (inactive),17.4 µM (inactive),17 µM (inactive),21 µM (inactive)
CC(=O)c1cc(CC2Cc3cc4c(cc3C2=O)CCC4)cc2c1CCC2 (stereo not given),80 µM (inactive),92.7 µM (inactive),15.4 µM (inactive),90.2 µM (inactive),46 µM (inactive),26.1 µM (inactive),> 100 µM (inactive),12.5 µM (inactive),24 µM (inactive),44.9 µM (inactive),15 µM (inactive),20.4 µM (inactive),71.1 µM (inactive),78 µM (inactive),49.5 µM (inactive),15.1 µM (inactive),38.5 µM (inactive),33.7 µM (inactive),29.9 µM (inactive),49.5 µM (inactive)
O=C(NC(=O)c1ccccc1[N+](=O)[O-])Nc1ccc(Oc2ncc(Br)cn2)c(Cl)c1,0.0215 µM (active),0.0508 µM (active),0.0703 µM (active),0.0194 µM (active),0.0875 µM (active),0.0255 µM (active),0.0258 µM (active),0.0194 µM (active),0.0528 µM (active),0.0148 µM (active),0.0389 µM (active),0.0137 µM (active),0.0213 µM (active),0.0278 µM (active),0.0237 µM (active),0.0871 µM (active),0.0362 µM (active),0.0427 µM (active),0.0237 µM (active),0.0281 µM (active)
COC(=O)[C@H](Cc1ccccc1)NC(=O)N1CCCN(C(=O)N[C@@H](Cc2ccccc2)C(=O)OC)CCCN(C(=O)N[C@@H](Cc2ccccc2)C(=O)OC)CCC1,17.5 µM (inactive),17.1 µM (inactive),31.1 µM (inactive),25.5 µM (inactive),18.1 µM (inactive),20.2 µM (inactive),16.4 µM (inactive),61.1 µM (inactive),15.3 µM (inactive),16.5 µM (inactive),27.2 µM (inactive),17.8 µM (inactive),15 µM (inactive),27.7 µM (inactive),19.5 µM (inactive),17.3 µM (inactive),22.3 µM (inactive),16.7 µM (inactive),18.2 µM (inactive),15.9 µM (inactive)
CCOC(=O)c1ccc(C(=O)/C(C(C)=O)=C2\CCCN2C)n1C,> 100 µM (inactive),> 100 µM (inactive),> 100 µM (inactive),> 100 µM (inactive),> 100 µM (inactive),30.6 µM (inactive),> 100 µM (inactive),62.7 µM (inactive),53.8 µM (inactive),> 100 µM (inactive),90.6 µM (inactive),56.9 µM (inactive),> 100 µM (inactive),73.3 µM (inactive),69.7 µM (inactive),15.8 µM (inactive),> 100 µM (inactive),86.5 µM (inactive),> 100 µM (inactive),> 100 µM (inactive)
O=C1C([N-]S(=O)(=O)c2ccccc2)=C([n+]2ccc(Cc3ccccc3)cc2)C(=O)c2ccccc21,1.73 µM (inactive),1.79 µM (inactive),1.36 µM (inactive),1.73 µM (inactive),1.2 µM (inactive),0.91 µM (active),1.79 µM (inactive),0.359 µM (active),0.424 µM (active),1.67 µM (inactive),0.284 µM (active),1.79 µM (inactive),1.5 µM (inactive),1.71 µM (inactive),0.641 µM (active),3.46 µM (inactive),1.66 µM (inactive),1.85 µM (inactive),1.22 µM (inactive),2.13 µM (inactive)
COc1ccccc1C1(c2c(OC)c(=O)c2=O)SCCCS1,> 100 µM (inactive),> 100 µM (inactive),31.6 µM (inactive),> 100 µM (inactive),> 100 µM (inactive),> 100 µM (inactive),47.2 µM (inactive),> 100 µM (inactive),60.3 µM (inactive),85.7 µM (inactive),48.3 µM (inactive),67 µM (inactive),> 100 µM (inactive),74 µM (inactive),> 100 µM (inactive),73.8 µM (inactive),> 100 µM (inactive),> 100 µM (inactive),85.1 µM (inactive),> 100 µM (inactive)
O=C1Nc2ccccc2/C1=C\c1c(Cl)[nH]c2ccccc12,0.935 µM (active),1.3 µM (inactive),0.832 µM (active),0.537 µM (active),0.416 µM (active),0.745 µM (active),0.139 µM (active),0.364 µM (active),1.07 µM (active),3.65 µM (inactive),2.45 µM (inactive),0.287 µM (active),1.11 µM (active),0.764 µM (active),0.516 µM (active),24 µM (inactive),1.35 µM (inactive),0.518 µM (active),1.59 µM (inactive),1.66 µM (inactive)

# Reference: ChEMBL document CHEMBL1201862, “PubChem BioAssay data set” (2004)
